#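 Each compound was tested at five concentrations against cells in 96-well plates for 48 hours. At the GI50, growth is halved.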 Active and inactive are the calls of the source. Rule as the data show it: active = GI50 up to about 1.1 µM and inactive = higher.
# How the values were obtained:
# Assay in all cases: NCI anticancer screen, dose series, 48 h
# [1] = tested on: LOX IMVI
# [2] = tested on: SNB-19
# [3] = tested on: COLO 205
# [4] = tested on: SNB-75
# [5] = tested on: T47D
# [6] = tested on: NCI-H23
# [7] = tested on: U-251
# [8] = tested on: TK-10
# [9] = tested on: ACHN
# [10] = tested on: KM12
# [11] = tested on: UACC-62
# [12] = tested on: EKVX
# [13] = tested on: SK-OV-3
# [14] = tested on: MOLT-4
# [15] = tested on: SW-620
# [16] = tested on: CAKI-1
# [17] = tested on: HT-29
# [18] = tested on: K562
# [19] = tested on: MDA-N
# [20] = tested on: HL-60
SMILES,GI50 [1],GI50 [2],GI50 [3],GI50 [4],GI50 [5],GI50 [6],GI50 [7],GI50 [8],GI50 [9],GI50 [10],GI50 [11],GI50 [12],GI50 [13],GI50 [14],GI50 [15],GI50 [16],GI50 [17],GI50 [18],GI50 [19],GI50 [20]
O=C1Nc2ccccc2/C1=N\c1cccc2ncccc12,27.4 µM (inactive),> 100 µM (inactive),> 100 µM (inactive),94.8 µM (inactive),> 100 µM (inactive),32.2 µM (inactive),67.5 µM (inactive),> 100 µM (inactive),> 100 µM (inactive),95.1 µM (inactive),> 100 µM (inactive),19.1 µM (inactive),26.7 µM (inactive),30 µM (inactive),> 100 µM (inactive),> 100 µM (inactive),58.3 µM (inactive),34 µM (inactive),34.5 µM (inactive),
CC(C)(N)CO[C@H]1C[C@H]2CC[C@@]1(C)C2(C)C,17.2 µM (inactive),24.8 µM (inactive),16.1 µM (inactive),14.2 µM (inactive),16 µM (inactive),23.7 µM (inactive),18.1 µM (inactive),20 µM (inactive),34.9 µM (inactive),18.1 µM (inactive),18.2 µM (inactive),28.3 µM (inactive),27.8 µM (inactive),26.3 µM (inactive),23.7 µM (inactive),20.2 µM (inactive),12.4 µM (inactive),18.2 µM (inactive),15.5 µM (inactive),
CC1=NN(c2nc(N)nc(/C(C#N)=C\c3csc([N+](=O)[O-])c3)n2)C(C)(C)C1,71.3 µM (inactive),,,,23.7 µM (inactive),32.1 µM (inactive),19.3 µM (inactive),34.2 µM (inactive),35 µM (inactive),57.9 µM (inactive),,30.2 µM (inactive),42.2 µM (inactive),> 100 µM (inactive),68.7 µM (inactive),44.5 µM (inactive),37.3 µM (inactive),39.4 µM (inactive),27.7 µM (inactive),5.22 µM (inactive)
COc1ccc(/C=C2\CN(C)C/C(=C\c3ccc(OC)cc3)C2=O)cc1,> 100 µM (inactive),> 100 µM (inactive),> 100 µM (inactive),> 100 µM (inactive),> 100 µM (inactive),> 100 µM (inactive),> 100 µM (inactive),> 100 µM (inactive),> 100 µM (inactive),> 100 µM (inactive),> 100 µM (inactive),> 100 µM (inactive),,> 100 µM (inactive),> 100 µM (inactive),> 100 µM (inactive),> 100 µM (inactive),> 100 µM (inactive),> 100 µM (inactive),> 100 µM (inactive)
O=C1C=C(N2CCN(CCOCCO)CC2)C(=O)c2c(O)ccc(O)c21,1.92 µM (inactive),18.4 µM (inactive),1.38 µM (inactive),16.6 µM (inactive),5.65 µM (inactive),2.21 µM (inactive),4.02 µM (inactive),9.64 µM (inactive),7.4 µM (inactive),12 µM (inactive),1.82 µM (inactive),19.6 µM (inactive),20.6 µM (inactive),,2.31 µM (inactive),15.7 µM (inactive),4.48 µM (inactive),3.17 µM (inactive),1.84 µM (inactive),2.52 µM (inactive)
CCOC(=O)C#Cc1cccc(C#CC(=O)OCC)c1,2.07 µM (inactive),5.71 µM (inactive),5.32 µM (inactive),0.0248 µM (active),42.3 µM (inactive),3.66 µM (inactive),4.71 µM (inactive),5.47 µM (inactive),6.03 µM (inactive),6.65 µM (inactive),4.94 µM (inactive),1.14 µM (inactive),7.55 µM (inactive),,5.25 µM (inactive),4.93 µM (inactive),4.81 µM (inactive),1.91 µM (inactive),2.32 µM (inactive),1.8 µM (inactive)
C=CCCCCCCCCCOC1C=CC(OC(C)=O)C(COC(C)=O)O1 (configuration not stated),34.2 µM (inactive),> 100 µM (inactive),51.6 µM (inactive),,77.3 µM (inactive),32.1 µM (inactive),39.6 µM (inactive),44.3 µM (inactive),65.5 µM (inactive),26.9 µM (inactive),46.8 µM (inactive),47.6 µM (inactive),> 100 µM (inactive),24.5 µM (inactive),57 µM (inactive),80.5 µM (inactive),21.4 µM (inactive),1.99 µM (inactive),44.3 µM (inactive),24.2 µM (inactive)
CC(=O)C1=C(N=[N+]=[N-])c2cccc3cccc(c23)C1=O,14.7 µM (inactive),30.1 µM (inactive),15.7 µM (inactive),21.8 µM (inactive),15.8 µM (inactive),20 µM (inactive),19.2 µM (inactive),15.3 µM (inactive),16 µM (inactive),21.1 µM (inactive),15.2 µM (inactive),18.2 µM (inactive),24 µM (inactive),7.19 µM (inactive),18.3 µM (inactive),15.3 µM (inactive),17.6 µM (inactive),8.11 µM (inactive),18.9 µM (inactive),
CN(/N=C/C=N/N(C)C1=NCCN1)C1=NCCN1,> 100 µM (inactive),> 100 µM (inactive),> 100 µM (inactive),> 100 µM (inactive),> 100 µM (inactive),> 100 µM (inactive),> 100 µM (inactive),> 100 µM (inactive),> 100 µM (inactive),> 100 µM (inactive),> 100 µM (inactive),> 100 µM (inactive),> 100 µM (inactive),> 100 µM (inactive),> 100 µM (inactive),> 100 µM (inactive),> 100 µM (inactive),> 100 µM (inactive),> 100 µM (inactive),
CNC1=Nc2ccccc2C(=O)N2CSCC12 (configuration not stated),> 100 µM (inactive),> 100 µM (inactive),> 100 µM (inactive),> 100 µM (inactive),> 100 µM (inactive),,> 100 µM (inactive),> 100 µM (inactive),> 100 µM (inactive),> 100 µM (inactive),> 100 µM (inactive),> 100 µM (inactive),> 100 µM (inactive),> 100 µM (inactive),> 100 µM (inactive),> 100 µM (inactive),> 100 µM (inactive),> 100 µM (inactive),> 100 µM (inactive),
CC1CC(C)C(C#N)N(C)c2ccccc21 (configuration not stated),,> 100 µM (inactive),> 100 µM (inactive),> 100 µM (inactive),> 100 µM (inactive),> 100 µM (inactive),,> 100 µM (inactive),> 100 µM (inactive),> 100 µM (inactive),97.5 µM (inactive),> 100 µM (inactive),> 100 µM (inactive),66.7 µM (inactive),> 100 µM (inactive),> 100 µM (inactive),78.3 µM (inactive),87.9 µM (inactive),> 100 µM (inactive),26.7 µM (inactive)
COc1ccc(N2C(=O)C3c4[nH]c5ccc(C)cc5c4C4CCC(C(C)C)CC4C3C2=O)cc1 (configuration not stated),> 100 µM (inactive),> 100 µM (inactive),> 100 µM (inactive),27.7 µM (inactive),> 100 µM (inactive),> 100 µM (inactive),47.6 µM (inactive),> 100 µM (inactive),> 100 µM (inactive),> 100 µM (inactive),> 100 µM (inactive),> 100 µM (inactive),> 100 µM (inactive),> 100 µM (inactive),> 100 µM (inactive),> 100 µM (inactive),> 100 µM (inactive),> 100 µM (inactive),> 100 µM (inactive),
O=C(O)c1ccccc1CC1Cc2cc3c(cc2C1)CCC3,> 100 µM (inactive),> 100 µM (inactive),> 100 µM (inactive),> 100 µM (inactive),33 µM (inactive),49.5 µM (inactive),> 100 µM (inactive),> 100 µM (inactive),> 100 µM (inactive),> 100 µM (inactive),92.3 µM (inactive),> 100 µM (inactive),> 100 µM (inactive),> 100 µM (inactive),> 100 µM (inactive),,> 100 µM (inactive),> 100 µM (inactive),> 100 µM (inactive),> 100 µM (inactive)
O=C(O)c1c(-c2ccccc2)c(=O)[nH]c2ccccc12,> 100 µM (inactive),> 100 µM (inactive),> 100 µM (inactive),> 100 µM (inactive),> 100 µM (inactive),> 100 µM (inactive),> 100 µM (inactive),> 100 µM (inactive),> 100 µM (inactive),> 100 µM (inactive),> 100 µM (inactive),> 100 µM (inactive),> 100 µM (inactive),> 100 µM (inactive),> 100 µM (inactive),,> 100 µM (inactive),> 100 µM (inactive),> 100 µM (inactive),> 100 µM (inactive)
CC(C)(C)[Si](C)(C)OCCC1CC2(S(=O)(=O)C3=CC=C=C=C3)ON1CC2S(=O)(=O)c1ccccc1 (configuration not stated),,> 10 µM (inactive),> 10 µM (inactive),> 10 µM (inactive),> 10 µM (inactive),> 10 µM (inactive),> 100 µM (inactive),> 10 µM (inactive),> 10 µM (inactive),> 10 µM (inactive),> 10 µM (inactive),> 10 µM (inactive),> 100 µM (inactive),> 10 µM (inactive),> 10 µM (inactive),,> 10 µM (inactive),,> 10 µM (inactive),
